# Measured values published in patent US20120245223A1, “USE OF GYMNODIMINE, ANALOGUES AND DERIVATIVES FOR THE TREATMENT AND/OR PREVENTION OF NEURODEGENERATIVE DISEASES ASSOCIATED WITH TAU AND B-AMYLOID” (priority 2009, published 2012).
# How the values were obtained:
# [1] = tested on: cortical neurones; test: Alamar Blue fluorescence viability assay in primary cortical cultures; format: cell-based, mouse; details: for Viability of cortical neurones: 72 hours in culture, mean ± standard error, three experiments
# Excerpt: (§1) In order to carry out the experiments of the present invention, either an in vitro cortical neuronal model with simultaneous overexpression of tau and β-amyloid, obtained from a model of Alzheimer's disease in triple-transgenic (3×Tg-AD or 3×Tg) mice, obtainable via the detailed procedure in the international patent application WO2003/053136 and provided by the title holders of this application, or an in vitro cortical neuronal model obtained from non-transgenic (Non Tg) mice.
# The primary cortical cultures in the present invention were obtained from 3×Tg-AD mouse embryos of 15-17 days gestation and the wild cultures were obtained from non-3×Tg control mouse embryos of the same strain. The effect of the compounds used in this invention on cellular viability was estimated by a fluorescence assay using the Alamar Blue viability indicator. To carry out the assay, primary cortical cultures seeded on 96-well plates were used. The neuronal cells were incubated with gymnodimine, which was added to the culture medium at different concentrations, and the effect on in vitro neuronal viability at different treatment times was determined. The maximum concentration of gymnodimine evaluated was 100 nM and the concentration of Alamar blue was 10%. The volume of the reaction used was 200 μl. Fluorescence was measured at wavelengths of 530 nm (excitation) and 590 nm (emission).
# [2] = tested on: β-amyloid; test: Western blot of intracellular β-amyloid (6E10 antibody) in 3×Tg-AD cortical cultures; format: cell-based, mouse; details: 3×Tg-AD neocortical cultures, 50 nM, 3 to 7 days; p<0.005, n=3
# Excerpt: as §1
# (§2) The effect of gymnodimine on overexpression of β-amyloid and tau hyperphosphorylation was determined by the Western blot technique. Primary neuronal cultures were treated with 50 nM gymnodimine for between 3 and 7 days of culture. The cells were then processed following the usual protocols for Western blot. For Western blot studies, protein expression was evaluated using 6E10 anti-β-amyloid primary antibodies at a dilution of 1:500, AT8 anti-Tau (tau phosphorylated on Ser202, dilution 1:1000) and AT100 anti-tau (tau phosphorylated on Thr212 and Ser214, dilution 1:1000). […] Total protein concentration was determined by Bradford's method using bovine albumin as standard. […] The membranes were incubated with the primary antibodies, washed, and then incubated with a secondary antibody linked to HRP; the immunoreactivity was detected by chemiluminescence. […]
# [3] = tested on: tau phosphorylated on Ser202; test: Western blot of tau phosphorylated on Ser202 (AT8 antibody) in 3×Tg-AD cortical cultures; format: cell-based, mouse; details: 3×Tg transgenic cultures, 50 nM, 3 to 7 days; p<0.05, n=3
# Excerpt: as §1, §2
# [4] = tested on: tau phosphorylated on Thr212 and Ser214; test: Western blot of tau phosphorylated on Thr212 and Ser214 (AT100 antibody) in 3×Tg-AD cortical cultures; format: cell-based, mouse; details: 3×Tg transgenic cultures, 50 nM, 3 to 7 days; p<0.001, n=3
# Excerpt: as §1, §2
# [5] = tested on: total tau; test: Western blot of total tau basal levels (Tau46 antibody) in control neurones; format: cell-based, mouse; details: control (non-transgenic) neurones, 50 nM; mean ± standard error, two experiments
# Description: (§3) The effect of gymnodimine on overexpression of β-amyloid and tau hyperphosphorylation was determined by the Western blot technique. Primary neuronal cultures were treated with 50 nM gymnodimine for between 3 and 7 days of culture. The cells were then processed following the usual protocols for Western blot. For Western blot studies, protein expression was evaluated using 6E10 anti-β-amyloid primary antibodies at a dilution of 1:500, AT8 anti-Tau (tau phosphorylated on Ser202, dilution 1:1000) and AT100 anti-tau (tau phosphorylated on Thr212 and Ser214, dilution 1:1000). For Western blot assays, the neuronal cultures treated with gymnodimine were washed with cold phosphate buffer and lysed in 50 mM Tris-HCl buffer (pH 7.4) containing 150 mM NaCl, 1 mM EDTA, 1% Triton X-100, 2 mM DTT, 2.5 mM PMSF, 40 mg/ml aprotinin, 4 mg/ml leupeptin, 5 mM NaF, 1 mM Na3VO4, 1 mg/ml pepstatin A and 1 mg/ml benzamidine. Total protein concentration was determined by Bradford's method using bovine albumin as standard. […] The membranes were incubated with the primary antibodies, washed, and then incubated with a secondary antibody linked to HRP; the immunoreactivity was detected by chemiluminescence. […]
# (§4) The effect of gymnodimine on basal phosphorylation of tau was determined by Western blot techniques. […]
# [6] = tested on: tau phosphorylated on site Ser202; test: Western blot of basal tau phosphorylated on Ser202 in control neurones; format: cell-based, mouse; details: control (non-transgenic) neurones, 50 nM
# Description: as §3, §4
# [7] = tested on: nicotinic acetylcholine receptors; details: blocking effect; Kharrat et al. 2008, Dragunow et al. 2005; cited from earlier work
# [8] = cited from earlier work
structure (smiles),measurement,setting,value
"CC1=C[C@@H](C2=C(C)[C@@H]3/C=C(\C)[C@@H](O)CC[C@H]4C[C@@H](C)[C@@H](O4)/C(C)=C/CCC4=NCCC[C@@]43CC2)OC1=O [Gymnodimine, gymnodimine]",Viability of cortical neurones,[1]; 2.5 nM,97.0 ± 4.9 % control
same,Viability of cortical neurones,[1]; 5 nM,102.8 ± 0.3 % control
same,Viability of cortical neurones,[1]; 10 nM,105.6 ± 5.9 % control
same,Viability of cortical neurones,[1]; 25 nM,105.1 ± 1.09 % control
same,Viability of cortical neurones,[1]; 50 nM,102.9 ± 1.4 % control
same,Viability of cortical neurones,[1]; 100 nM,101.8 ± 1.7 % control
same,Effect on cell viability (in words),"[1]; up to maximum concentration of 100 nM, neuronal model",does not cause a reduction in cell viability
same,"Expression of intracellular β-amyloid (Western blot, 6E10)",[2],significant reduction of overexpression of β-amyloid
same,"Tau phosphorylation on Ser202 (Western blot, AT8)",[3],significant reduction of tau phosphorylation
same,"Tau phosphorylation on Thr212 and Ser214 (Western blot, AT100)",[4],significant reduction of tau phosphorylation
same,Total tau basal levels,[5],111 ± 3.9% control
same,Levels of tau phosphorylated on site Ser202,[6],95% control
same,Binding to nicotinic acetylcholine receptors,[7],high affinity binding
same,Toxicity intracerebrally versus intraperitoneally,[8]; introduced intracerebrally compared with intraperitoneally,much higher when it is introduced intracerebrally
same,Toxicity when orally administered,"[8]; oral administration, Munday et al. 2004",significantly reduced toxicity
